With `CCN(C(=O)CCl)c1ccccc1C` as the compound, how does the logP read?
The logP was 2.82.

Which logP does the source give for `C=CCN(C(=O)CSP(=S)(OC)OC)c1ccc(C)cc1` here?
Its logP is 2.92.

Which logP does the source give for `CCOC(=O)C(C)N(C(=O)CSP(=S)(OC)OC)c1ccc(Cl)cc1` (stereo not given) here?
The logP was 2.75.

For `O=C(CCl)N(Cc1ccccc1)c1ccc(Cl)cc1`, which logP is on record?
The logP was 4.09.

Which logP does the source give for `CCOC(=O)[C@H](C)N(C(=O)CCl)c1ccccc1` here?
Its logP is 1.79.

For `C=CCN(C(=O)CSP(=S)(OC)OC)c1ccccc1C`, which logP is on record?
Its logP is 2.93.

With `CCOC(=O)CN(C(=O)CSP(=S)(OC)OC)c1ccccc1` as the compound, how does the logP read?
The logP was 1.19.

Which logP does the source give for `CCOC(=O)C(C)N(C(=O)CSP(=S)(OC)OC)c1ccccc1` (stereo not given) here?
The logP was 1.79.

With `CCOC(=O)CN(C(=O)CCl)c1ccc(Cl)cc1` as the compound, how does the logP read?
The logP was 2.15.

With `CCOC(=O)CN(C(=O)CCl)c1cccc(Cl)c1` as the compound, how does the logP read?
The logP was 2.42.

With `O=C(CCl)N(Cc1ccccc1)c1ccccc1` as the compound, how does the logP read?
The logP was 3.13.

With `CCN(C(=O)CCl)c1ccccc1` as the compound, how does the logP read?
Its logP is 2.26.

With `CCCN(C(=O)CCl)c1ccc(Cl)cc1` as the compound, how does the logP read?
Its logP is 3.62.

Which logP does the source give for `CCN(C(=O)CSP(=S)(OC)OC)c1ccccc1` here?
Its logP is 2.26.

For `CCOP(=S)(Oc1ccc(Cl)cc1Cl)SCC(=O)N(CC)c1ccc(C)cc1` (stereo not given), which logP is on record?
The logP was 2.82.

With `C=CCN(C(=O)CSP(=S)(OC)OC)c1ccc(Cl)cc1` as the compound, how does the logP read?
Its logP is 3.19.

For `C=CCN(C(=O)CCl)c1ccc(Cl)cc1`, which logP is on record?
Its logP is 3.19.

Which logP does the source give for `CCN(C(=O)CSP(=S)(OC)OC)c1ccc(C)cc1` here?
The logP was 2.81.

With `CCOC(=O)C(C)N(C(=O)CSP(=S)(OC)OC)c1cccc(Cl)c1` (stereo not given) as the compound, how does the logP read?
The logP was 3.68.

With `COP(=S)(OC)SCC(=O)N(Cc1ccccc1)c1ccccc1` as the compound, how does the logP read?
The logP was 3.13.

Which logP does the source give for `O=C(CCl)N(Cc1ccccc1)c1cccc(Cl)c1` here?
Its logP is 4.28.

With `COP(=S)(OC)SCC(=O)N(Cc1ccccc1)c1ccc(Cl)cc1` as the compound, how does the logP read?
Its logP is 4.09.

For `CCOP(=S)(Oc1ccc(Cl)cc1Cl)SCC(=O)N(CC)c1ccccc1C` (stereo not given), which logP is on record?
Its logP is 2.82.

With `CCOC(=O)[C@H](C)N(C(=O)CCl)c1ccc(Cl)cc1` as the compound, how does the logP read?
The logP was 2.75.

Which logP does the source give for `COP(=S)(OC)SCC(=O)N(c1ccccc1)C(C)C` here?
Its logP is 2.5.

With `CCOC(=O)CN(C(=O)CSP(=S)(OC)OC)c1ccc(Cl)cc1` as the compound, how does the logP read?
Its logP is 2.15.

For `C=CCN(C(=O)CCl)c1cccc(Cl)c1`, which logP is on record?
Its logP is 3.38.

With `CCN(C(=O)CSP(=S)(OC)OC)c1ccccc1C` as the compound, how does the logP read?
Its logP is 2.82.

For `C=CCN(C(=O)CCl)c1ccc(C)cc1`, which logP is on record?
Its logP is 2.92.

With `CCOC(=O)CN(C(=O)CSP(=S)(OC)OC)c1ccccc1Cl` as the compound, how does the logP read?
Its logP is 2.42.
